Data on 2 compounds can be found in patent publication US20190070163A1, “ANTITUMOR AGENT” (TOCHIGI INSTITUTE OF CLINICAL PATHOLOGY, priority 2013, published 2019).

This experiment has as its system spontaneously developed mammary gland tumors (adenocarcinoma and adenoma). As to the kind of experiment: Therapeutic effect on tumor-bearing rats; light and electron microscopy of removed tumor tissues. To be noted: for apoptosis of smooth muscle cells in the tumor site: electron micrographs FIGS. 12 to 15; for degeneration of axons of peripheral nerve cells in the tumor site / degeneration of myelin sheaths of peripheral nerve cells in the tumor site: electron micrographs FIGS. 16 to 19; for stage of apoptosis of endothelial cells (irregular condensation and fragmentation of nuclei): staging per Ihara et al. 1998; for apoptosis in the tumor cells / inhibitory effect on the development and the growth of the tumor cells: tumor-bearing rats, oral daily (montelukast sodium 0.16, zafirlukast 1.33, pranlukast hydrate 7.5, zileuton 34.3 mg/kg), vs untreated. Format: in vivo, Sprague-Dawley rats. From the text:
Sprague-Dawley rats which had spontaneously developed a tumor during breeding (hereinafter referred to as tumor-bearing rats) were purchased from Charles River Japan, Inc., and used for experiments. Tumors observed were all mammary gland tumors (adenocarcinoma and adenoma). All of these were spontaneous tumors, and the rats were cancer-bearing animals having various conditions of tumorigenesis including carcinogenic factors in mammals including human.
Under ether anesthetization, tumor tissues were removed from tumor-bearing rats. The removed tumors were fixed, and thereafter samples for light microscopy (hematoxylin-eosin staining) and samples for electron microscopy (uranium-lead double staining) were prepared and observed.
To tumor-bearing rats, a leukotriene inhibitor containing montelukast sodium as an active ingredient (leukotriene receptor antagonist; trade name “Singulair Tablets”; manufactured by MSD K. K.) was orally administered for up to 7 days at a daily dose of 0.16 mg/kg body weight in terms of montelukast sodium. On Day 3 and Day 7, tumor tissues were removed under ether anesthetization. In the same manner as in Comparative Example 1, the removed tumors were fixed, and thereafter samples for light microscopy (hematoxylin-eosin staining) and samples for electron microscopy (uranium-lead double staining) were prepared and observed.
To tumor-bearing rats, a leukotriene inhibitor containing zafirlukast as an active ingredient (leukotriene receptor antagonist; trade name “Accolate”; manufactured by AstraZeneca K. K.) was orally administered for up to 7 days at a daily dose of 1.33 mg/kg body weight in terms of zafirlukast. On Day 3 and Day 7, tumor tissues were removed under ether anesthetization. In the same manner as in Comparative Example 1, the removed tumors were fixed, and thereafter samples for light microscopy (hematoxylin-eosin staining) and samples for electron microscopy (uranium-lead double staining) were prepared and observed.
To tumor-bearing rats, a leukotriene inhibitor containing pranlukast hydrate as an active ingredient (leukotriene receptor antagonist; trade name “Onon”; manufactured by Ono Pharmaceutical Co., Ltd.) was orally administered for up to 7 days at a daily dose of 7.5 mg/kg body weight in terms of pranlukast hydrate. On Day 3 and Day 7, tumor tissues were removed under ether anesthetization. In the same manner as in Comparative Example 1, the removed tumors were fixed, and thereafter samples for light microscopy (hematoxylin-eosin staining) and samples for electron microscopy (uranium-lead double staining) were prepared and observed.
To tumor-bearing rats, a leukotriene inhibitor containing zileuton as an active ingredient (leukotriene biosynthesis inhibitor; trade name “ZYFLO”; manufactured by Abbott Laboratories) was orally administered for up to 7 days at a daily dose of 34.3 mg/kg body weight in terms of zileuton. On Day 3 and Day 7, tumor tissues were removed under ether anesthetization. In the same manner as in Comparative Example 1, the removed tumors were fixed, and thereafter samples for light microscopy (hematoxylin-eosin staining) and samples for electron microscopy (uranium-lead double staining) were prepared and observed.

[1] abbreviates: oral, dosing period 3 days, electron micrographs.

Regarding `COc1cc(C(=O)NS(=O)(=O)c2ccccc2C)ccc1Cc1cn(C)c2ccc(NC(=O)OC3CCCC3)cc12` [zafirlukast], the “apoptosis in the tumor cells” value is recorded as “apoptosis was already induced on as early as Day 3”; the “inhibitory effect on the development and the growth of the tumor cells” value is on record as “remarkable inhibitory effect”. Further, under setting [1], the “apoptosis of fibroblasts in tumor tissue” value is listed as “apoptosis of fibroblast”; the “stage of apoptosis of endothelial cells (irregular condensation and fragmentation of nuclei)” value was “Stage II to III”. Besides, for the setting “oral, dosing period 3 days”, the “apoptosis of smooth muscle cells in the tumor site” value is listed as “apoptosis of a smooth muscle cell”; the “degeneration of axons of peripheral nerve cells in the tumor site” value is “vacuolation and degeneration of an axon”; the “degeneration of myelin sheaths of peripheral nerve cells in the tumor site” value was “degeneration of a myelin sheath”.
Turning to `CC(c1cc2ccccc2s1)N(O)C(N)=O` (centres unmarked) [zileuton], the “apoptosis in the tumor cells” value is “apoptosis was already induced on as early as Day 3”; the “inhibitory effect on the development and the growth of the tumor cells” value was “remarkable inhibitory effect”. In addition, for the setting “oral, dosing period 3 days”, the “effect to inhibit stromal hyperplasia” value is given as “an effect to inhibit stromal hyperplasia was also seen”; the “apoptosis of smooth muscle cells in the tumor site” value is on record as “apoptosis of a smooth muscle cell”; the “degeneration of axons of peripheral nerve cells in the tumor site” value was “vacuolation and degeneration of an axon”; the “degeneration of myelin sheaths of peripheral nerve cells in the tumor site” value is on record as “degeneration of a myelin sheath”. Also, the “stage of apoptosis of endothelial cells (irregular condensation and fragmentation of nuclei)” value under setting [1] is “Stage II to III”.
